Target: T1, CDK2/Cyclin A (Homo sapiens, UniProt P24941)
T1 construct: made in house; host or cells: CDK2: insect cells (baculovirus); cyclin A: E. coli
Assay: Inhibition of CDK2/Cyclin A retinoblastoma kinase activity (apparent Ki)
Assay type: biochemical
Details: read-out: CDK2 Ki
Procedure: Cyclin-dependent kinase activity was measured by quantifying the enzyme-catalyzed, time-dependent incorporation of radioactive phosphate from [^32P]ATP or [^33P]ATP into a protein substrate. […] Reactions were initiated with enzyme, incubated at 30° C., and terminated after 20 minutes by the addition of ethylenediaminetetraacetic acid (EDTA) to 250 mM. […] Radioactivity was quantified by exposing the dried membranes to a phosphorimager.
Apparent Ki values were measured by assaying enzyme activity in the presence of different inhibitor compound concentrations and subtracting the background radioactivity measured in the absence of enzyme. Inhibition data were fit to an equation for competitive inhibition using Kaleidagraph (Synergy Software), or were fit to an equation for competitive tight-binding inhibition using the software KineTic (BioKin, Ltd.).
A complex of CDK2 and proteolyzed cyclin A was prepared and purified by gel filtration. […] Ki values were measured as described above.

`Cc1c(N)cncc1-c1ccc2[nH]nc(-c3nc4c([nH]3)CCCC4)c2c1` [Example 36, 4-Methyl-5-[3-(4,5,6,7-tetrahydro-1H-benzoimidazol-2-yl)-1H-indazol-5-yl]-pyridin-3-ylamine] and `CCNCc1cncc(-c2ccc3[nH]nc(-c4nc5c([nH]4)CCCC5)c3c2)c1C` [Example 21, Ethyl-{4-methyl-5-[3-(4,5,6,7-tetrahydro-1H-benzoimidazol-2-yl)-1H-indazol-5-yl]-pyridin-3-ylmethyl}-amine] cannot be ordered by Ki: under 50 nM for the first, under 50 nM for the second.

Compared with `CCNCc1cncc(-c2ccc3[nH]nc(-c4nnn[nH]4)c3c2)c1C` [Example 91, Ethyl-{4-methyl-5-[3-(1H-tetrazol-5-yl)-1H-indazol-5-yl]-pyridin-3-ylmethyl}-amine], `CCNCc1cncc(-c2ccc3[nH]nc(-c4nc(C)c[nH]4)c3c2)c1C` [Example 92, N-({4-methyl-5-[3-(4-methyl-1H-imidazol-2-yl)-1H-indazol-5-yl]pyridin-3-yl}methyl)ethanamine] is lower in Ki: over 200 nM for the first, under 50 nM for the second.

Compared with `CCNCc1cncc(-c2ccc3[nH]nc(-c4nc(-c5ccccc5)c(C(=O)NCCCCO)[nH]4)c3c2)c1C` [Example 18, 2-[5-(5-Ethylaminomethyl-4-methyl-pyridin-3-yl)-1H-indazol-3-yl]-5-phenyl-3H-imidazole-4-carboxylic acid (4-hydroxy-butyl)-amide], `CCNCc1cncc(-c2ccc3[nH]nc(-c4nc(-c5ccccc5)c(C(=O)NCCCO)[nH]4)c3c2)c1C` [Example 17, 2-[5-(5-Ethylaminomethyl-4-methyl-pyridin-3-yl)-1H-indazol-3-yl]-5-phenyl-3H-imidazole-4-carboxylic acid (3-hydroxy-propyl)-amide] is lower in Ki: over 200 nM for the first, 50 to 200 nM for the second. The second binds more tightly here.

`Cc1c(N)cncc1-c1ccc2[nH]nc(-c3nc(-c4cccc(F)c4)c[nH]3)c2c1` [Example 38, 5-{3-[4-(3-Fluoro-phenyl)-1H-imidazol-2-yl]-1H-indazol-5-yl}-4-methyl-pyridin-3-ylamine] and `Cc1c(N)cncc1-c1ccc2[nH]nc(-c3nc(-c4ccc(F)cc4)c[nH]3)c2c1` [Example 40, 5-{3-[4-(4-Fluoro-phenyl)-1H-imidazol-2-yl]-1H-indazol-5-yl}-4-methyl-pyridin-3-ylamine] cannot be ordered by Ki: under 50 nM for the first, under 50 nM for the second.

First: CCNCc1cncc(-c2ccc3[nH]nc(-c4ocnc4C)c3c2)c1C [Example 88, N-({4-methyl-5-[3-(4-methyl-1,3-oxazol-5-yl)-1H-indazol-5-yl]pyridin-3-yl}methyl)ethanamine]
Second: CCNCc1cncc(-c2ccc3[nH]nc(-c4ncc(C(=O)N(CC)CC)[nH]4)c3c2)c1C [Example 56, N,N-diethyl-2-(5-{5-[(ethylamino)methyl]-4-methylpyridin-3-yl}-1H-indazol-3-yl)-1H-imidazole-5-carboxamide]
The Ki of the first is higher: over 200 nM for the first, under 50 nM for the second. The second binds more tightly here.

`CCNCc1cncc(-c2ccc3[nH]nc(-c4ncc(C(=O)N5CCC(Oc6ccccc6)CC5)[nH]4)c3c2)c1C` [Example 70, N-{[4-methyl-5-(3-{5-[(4-phenoxypiperidin-1-yl)carbonyl]-1H-imidazol-2-yl}-1H-indazol-5-yl)pyridin-3-yl]methyl}ethanamine] and `CCNCc1cncc(-c2ccc3[nH]nc(-c4ncc(C(=O)N5CCN(CCOC)CC5)[nH]4)c3c2)c1C` [Example 78, N-({5-[3-(5-{[4-(2-methoxyethyl)piperazin-1-yl]carbonyl}-1H-imidazol-2-yl)-1H-indazol-5-yl]-4-methylpyridin-3-yl}methyl)ethanamine] cannot be ordered by Ki: under 50 nM for the first, under 50 nM for the second.

First: CCNCc1cncc(-c2ccc3[nH]nc(-c4nc(-c5ccccc5)c(C(=O)NC)[nH]4)c3c2)c1C [Example 6, 2-[5-(5-Ethylaminomethyl-4-methyl-pyridin-3-yl)-1H-indazol-3-yl]-5-phenyl-3H-imidazole-4-carboxylic acid methylamide]
Second: CCNCc1cncc(-c2ccc3[nH]nc(-c4nc(-c5ccccc5)c(C(=O)NCCN(C)C)[nH]4)c3c2)c1C [Example 16, 2-[5-(5-Ethylaminomethyl-4-methyl-pyridin-3-yl)-1H-indazol-3-yl]-5-phenyl-3H-imidazole-4-carboxylic acid (2-dimethylamino-ethyl)-amide]
The Ki of the first is lower: 50 to 200 nM for the first, over 200 nM for the second.

First: CCNCc1cncc(-c2ccc3[nH]nc(-c4ncc(C(=O)N5C[C@@H](C)O[C@@H](C)C5)[nH]4)c3c2)c1C [Example 60, N-({5-[3-(5-{[(2R,6S)-2,6-dimethylmorpholin-4-yl]carbonyl}-1H-imidazol-2-yl)-1H-indazol-5-yl]-4-methylpyridin-3-yl}methyl)ethanamine]
Second: CCNCc1cncc(-c2ccc3[nH]nc(-c4ncc(C(=O)N(C)C5CCN(C)C5)[nH]4)c3c2)c1C (stereo not drawn) [Example 84, 2-(5-{5-[(ethylamino)methyl]-4-methylpyridin-3-yl}-1H-indazol-3-yl)-N-methyl-N-(1-methylpyrrolidin-3-yl)-1H-imidazole-5-carboxamide]
The Ki of the first is lower: under 50 nM for the first, 50 to 200 nM for the second. The first binds more tightly here.

`CCNCc1cncc(-c2ccc3[nH]nc(-c4nc(-c5ccc(OC)cc5)c[nH]4)c3c2)c1C` [Example 34, Ethyl-(5-{3-[4-(4-methoxy-phenyl)-1H-imidazol-2-yl]-1H-indazol-5-yl}-4-methyl-pyridin-3-ylmethyl)-amine] and `Cc1c(N)cncc1-c1ccc2[nH]nc(-c3nc(-c4ccccc4)c[nH]3)c2c1` [Example 39, 4-Methyl-5-[3-(4-phenyl-1H-imidazol-2-yl)-1H-indazol-5-yl]-pyridin-3-ylamine] cannot be ordered by Ki: under 50 nM for the first, under 50 nM for the second.

First: CCNCc1cncc(-c2ccc3[nH]nc(-c4nc(-c5ccccc5)c(C(=O)NC5CCCCC5)[nH]4)c3c2)c1C [Example 12, 2-[5-(5-Ethylaminomethyl-4-methyl-pyridin-3-yl)-1H-indazol-3-yl]-5-phenyl-3H-imidazole-4-carboxylic acid cyclohexylamide]
Second: CCNCc1cncc(-c2ccc3[nH]nc(-c4nc(C(=O)NC5CCCC5)c[nH]4)c3c2)c1C [Example 58, N-cyclopentyl-2-(5-{5-[(ethylamino)methyl]-4-methylpyridin-3-yl}-1H-indazol-3-yl)-1H-imidazole-5-carboxamide]
The Ki of the first is higher: 50 to 200 nM for the first, under 50 nM for the second. The second binds more tightly here.

`CNCc1cncc(-c2ccc3[nH]nc(-c4ncc[nH]4)c3c2)c1C` [Example 45, {5-[3-(1H-Imidazol-2-yl)-1H-indazol-5-yl]-4-methyl-pyridin-3-ylmethyl}-methyl-amine] and `CCNCc1cncc(-c2ccc3[nH]nc(-c4nc(C(=O)N5CCN(C)CC5)c[nH]4)c3c2)c1C` [Example 57, N-{[4-methyl-5-(3-{5-[(4-methylpiperazin-1-yl)carbonyl]-1H-imidazol-2-yl}-1H-indazol-5-yl)pyridin-3-yl]methyl}ethanamine] cannot be ordered by Ki: under 50 nM for the first, under 50 nM for the second.

Tested on: Cyclin-dependent kinase
Assay: Cyclin-dependent kinase inhibition, % inhibition at 10 nM (library Examples 99-270)
Assay type: biochemical
Details: 10 nM compound
Summary of the method: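 Radiometric filter assay: kinase transfers ³²P/³³P from 25 μM ATP to a protein substrate in pH 7.4 HEPES buffer with MgCl2, 2% DMSO, 30° C, 20 min. EDTA stop; substrate captured on nitrocellulose or phosphocellulose membrane, washed with phosphoric acid, counted by phosphorimager.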

First: CCNCc1cncc(-c2ccc3[nH]nc(-c4ncc(C(=O)NC[C@]5(O)CC[C@H](c6ccccc6)CC5)[nH]4)c3c2)c1C [Example 204, 2-(5-{5-[(ethylamino)methyl]-4-methylpyridin-3-yl}-1H-indazol-3-yl)-N-[(trans-1-hydroxy-4-phenylcyclohexyl)methyl]-1H-imidazole-5-carboxamide]
Second: CCNCc1cncc(-c2ccc3[nH]nc(-c4ncc(C(=O)N5CCC(n6c(=O)[nH]c7ccccc76)CC5)[nH]4)c3c2)c1C [Example 107]
The % Inhib @ 10 nM of the first is higher: 77% for the first, 59% for the second.

Reference: patent US20050090529A1, “3,5 Disubstituted indazole compounds with nitrogen-bearing 5-membered heterocycles, pharmaceutical compositions, and methods for mediating or inhibiting cell proliferation” (PFIZER INC, priority 2003, published 2005)
